Source: EP0874630B1, “TOP[…] POISON AND BIS-DIOXY[…] COMBINATION THERAPY” (priority 1996, dated 1997)
Several values for one entry are separate records, joined by “and”; a condition that tells them apart may be missing. Equal entries are not always repeated. Where two headings read alike, the source gives them in different places.

How the values were obtained:
mice [1] = settings: mouse
Description: First generation hybrids of female random bred Swiss mice and male inbred DBA (NDF1-hybrid) mice were used as previously described (5). The mice weighed between 19 and 21 g at the start of the experiments. […] Lethality was recorded and surviving mice were sacrificed after 60 days. Toxicity was evaluated by weight and leucocyte counts. For weight evaluations mice were treated with drugs, marked and weighed for eleven consecutive days. Blood for leucocyte counts was obtained from a tail vein and counted in a hemocytometer on days 3, 5 and 7 after treatment.

mice [2] = settings: for increase in LD10 enabled by ICRF-187: LD10 of the topoisomerase II poison with ICRF-187 versus alone, mice
Text: Calculation of LD10 and LD50 using the maximum likelihood estimation. The 6 experiments in Table 2 are included in the computations.

[3] = test system: Ehrlich's ascites tumour cells; assay: Therapy study, mice inoculated i.p. with Ehrlich's ascites tumour cells (increase in life span); format: in vivo
Description: (§1) In therapy studies, mice were inoculated i.p. with either 10^5 L1210 leukemia cells or 15x10^6 Ehrlich's ascites tumour cells on day 0 and treated with drugs i.p. on day 4 after inoculation. The brain tumour model consisted of 10^4 L1210 cells or 15x10^4 Ehrlich's ascites tumour cells in a volume of 30 µl of isotonic sodium chloride inoculated on day 0 into the temporal region followed by treatment i.p. on day 2, 3 or 4 after inoculation.
(§2) 1×10^5 L1210 tumour cells or 15×10^6 Ehrlich's ascites tumour cells were inoculated i.p. on day 0 and mice were treated i.p. on day 4. The Mann Whitney test was used for statistical evaluation.

L1210 leukemia cells = assay: Therapy study, mice inoculated i.p. with L1210 leukemia cells (increase in life span); format: in vivo
Description: as §1, §2

mice [4] = assay: Lethality in healthy mice after drugs given once i.p., with or without ICRF-187 pretreatment (survivors/treated); format: in vivo; settings: for survivors/treated: compiled data from two experiments
Description: Toxicity was evaluated by weight and leucocyte counts.
The compiled data from two experiments showing that paclitaxel induced lethality cannot be protected by pretreamtment with ICRF-187. Groups of 11 mice were treated once i.p. with or without pretreatment with ICRF-187.

[5] = NDF1 hybrid (female Swiss x male DBA), mouse, in vivo, ip, 60 days

C[C@@H](CN1CC(=O)NC(=O)C1)N1CC(=O)NC(=O)C1 [ICRF-187, (+)-1,2-bis(3,5-dioxopiperazinyl-1-yl)propane] was tested, and the survivors/treated (mice [1]; NDF1 hybrid (female Swiss x male DBA), in vivo, 100 mg/kg, 60 days) was 11/11, the “ICRF-187 mediated protection in vivo” value (mice [1]) was “not obtained” and the LD10 (mice [2]; [5]) was 500 mg/kg. The LD90 (mice [2]; [5]) was 1500 mg/kg, the antitumour effect ([3]; ICRF-187 alone, mice inoculated i.p. with Ehrlich's ascites tumour) was “no antitumour effect” and the antitumour effect (L1210 leukemia cells; ICRF-187 alone, mice inoculated i.p. with L1210 tumour cells) was “no antitumour effect”.
COc1cc([C@@H]2c3cc4c(cc3[C@@H](O[C@@H]3O[C@@H]5CO[C@@H](c6cccs6)O[C@H]5[C@H](O)[C@H]3O)[C@H]3COC(=O)[C@H]23)OCO4)cc(OC)c1O [teniposide] was tested, and the “increase in LD10 enabled by ICRF-187” value (mice [2]) was 3.4 fold.
For CC(=O)O[C@H]1C(=O)[C@@]2(C)[C@H]([C@H](OC(=O)c3ccccc3)[C@]3(O)C[C@H](OC(=O)[C@H](O)[C@@H](NC(=O)c4ccccc4)c4ccccc4)C(C)=C1C3(C)C)[C@]1(OC(C)=O)CO[C@@H]1C[C@@H]2O [Paclitaxel, paclitaxel], the “Survivors/ treated, %” value (mice [4]; Paclitaxel 30 mg/kg alone) was 100%, the survivors/treated (mice [4]; Paclitaxel 30 mg/kg alone) was 22/22 and the “Survivors/ treated, %” value (mice [4]; Paclitaxel 40 mg/kg alone) was 55%. For the same molecule, the survivors/treated (mice [4]; Paclitaxel 40 mg/kg alone) was 12/22, the “Survivors/ treated, %” value (mice [4]; Paclitaxel 50 mg/kg alone) was 0% and the survivors/treated (mice [4]; Paclitaxel 50 mg/kg alone) was 0/22.
In the case of COc1cc([C@@H]2c3cc4c(cc3[C@@H](O[C@@H]3O[C@@H]5CO[C@@H](C)O[C@H]5[C@H](O)[C@H]3O)[C@H]3COC(=O)[C@H]23)OCO4)cc(OC)c1O [etoposide], the “increase in LD10 enabled by ICRF-187” value (mice [2]) is reported as 3.6 fold, the LD10 (mice [2]; dose of etoposide killing 10% of the mice, maximum likelihood estimation, 6 experiments of Table 2, combination with 125 mg/kg ICRF-187, 125 mg/kg) is reported as 34 mg/kg and 33 mg/kg and the LD10 (mice [2]; dose of etoposide killing 10% of the mice, maximum likelihood estimation, 6 experiments of Table 2, combination with 125 mg/kg ICRF-187, listed as VP-16, 125 mg/kg) is reported as 34.0 mg/kg. The “log LD10” value (mice [2]; maximum likelihood estimation on the 6 experiments of Table 2, combination with 125 mg/kg ICRF-187) was 1.531, the “ILS(%)” value ([3]; Etoposide 33 mg/kg i.p. on day 4, 15×10^6 Ehrlich's ascites tumour cells i.p. on day 0) was 53% and 40% and 35% and the “increased life span, ILS(%) (etoposide alone set to 100)” value ([3]; Table 5A, Etoposide 33 mg/kg, Ehrlich's tumour cells i.p.) was 100%. The “ILS(%)” value (L1210 leukemia cells; Etoposide 33 mg/kg i.p. on day 4, 1×10^5 L1210 tumour cells i.p. on day 0) was 113% and 100% and 88% and the “increased life span, ILS(%) (etoposide alone set to 100)” value (L1210 leukemia cells; Table 5B, Etoposide 33 mg/kg, L 1210 tumour cells i.p.) was 100%.
